Laboratory results: PubChem BioAssay (NCI)
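Cells were grown in 96-well plates and exposed to each compound for 48 hours at five concentrations; endpoints were interpolated linearly between bracketing concentrations, or set to the highest concentration if not reached. GI50 marks 50% less growth. TGI denotes the concentration required for complete inhibition of growth.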

Legend:
Experiment in all cases: NCI anticancer screen, dose series, 48 h
[1] = test system: K-562 leukemia
[2] = test system: U251 CNS
[3] = test system: KM12 colon
[4] = test system: OVCAR-8 ovarian
[5] = test system: PC-3 prostate
[6] = test system: NCI-H23 lung
[7] = test system: BT-549 breast
[8] = test system: HCT-15 colon
[9] = test system: SN12C renal
[10] = test system: OVCAR-4 ovarian
[11] = test system: SNB-19 CNS
[12] = test system: SF-539 CNS
[13] = test system: HCC-2998 colon
[14] = test system: 786-0 renal
[15] = test system: NCI/ADR-RES ovarian
[16] = test system: CCRF-CEM leukemia
[17] = test system: NCI-H226 lung
[18] = test system: UACC-62 melanoma
[19] = test system: SF-295 CNS
[20] = test system: SK-MEL-28 melanoma
[21] = test system: HCT-116 colon
[22] = test system: SR leukemia
[23] = test system: ACHN renal
[24] = test system: NCI-H522 lung
[25] = test system: MDA-MB-435
[26] = test system: RXF 393 renal
[27] = test system: CAKI-1 renal
[28] = test system: SK-OV-3 ovarian
[29] = test system: HOP-62 NSCLC
[30] = test system: OVCAR-5 ovarian
[31] = test system: COLO 205 colon
[32] = test system: EKVX NSCLC
[33] = test system: MCF7 breast
[34] = test system: TK-10 renal
[35] = test system: IGROV1 ovarian
[36] = test system: A549 NSCLC
[37] = test system: HL-60(TB) leukemia
[38] = test system: UACC-257 melanoma
[39] = test system: MALME-3M melanoma
[40] = test system: LOX IMVI melanoma
[41] = test system: UO-31 renal
[42] = test system: MDA-MB-231 breast
[43] = test system: A498 renal
[44] = test system: T-47D breast
[45] = test system: OVCAR-3 ovarian
[46] = test system: HOP-92 NSCLC
[47] = test system: SF-268 CNS
[48] = test system: SW-620 colon
[49] = test system: DU-145 prostate
[50] = test system: M14 melanoma
[51] = test system: NCI-H460 lung
[52] = test system: MOLT-4 leukemia
[53] = test system: SNB-75 CNS
[54] = test system: HT29 colon
[55] = test system: HS 578T breast
[56] = test system: SK-MEL-2 melanoma
[57] = test system: RPMI-8226 leukemia
[58] = test system: SK-MEL-5 melanoma

With `COc1cc2c(c(O)c1OC)C(O)C1CCC(=O)N1C2c1ccc2c(c1)OCO2` (stereo not drawn) the TGI [1] was > 100 µM, the TGI [2] was > 100 µM and the TGI [3] was > 100 µM. The TGI [4] was > 100 µM, the TGI [5] was > 100 µM and the TGI [6] was > 100 µM. For the same compound, the TGI [7] was > 100 µM, the TGI [8] was > 100 µM and the TGI [9] was > 100 µM. The TGI [10] was > 100 µM, the TGI [11] was > 100 µM and the TGI [12] was > 100 µM. The TGI [13] was > 100 µM, the TGI [14] was > 100 µM and the TGI [15] was > 100 µM. For the same compound, the TGI [16] was > 100 µM, the TGI [17] was > 100 µM and the TGI [18] was > 100 µM. For the same compound, the TGI [19] was > 100 µM, the TGI [20] was > 100 µM and the TGI [21] was > 100 µM. For the same compound, the TGI [22] was > 100 µM, the TGI [23] was > 100 µM and the TGI [24] was > 100 µM. For the same compound, the TGI [25] was > 100 µM, the TGI [26] was > 100 µM and the TGI [27] was > 100 µM. For the same compound, the TGI [28] was > 100 µM, the TGI [29] was > 100 µM and the TGI [30] was > 100 µM. The TGI [31] was > 100 µM, the TGI [32] was > 100 µM and the TGI [33] was > 100 µM. The TGI [34] was > 100 µM, the TGI [35] was > 100 µM and the TGI [36] was > 100 µM. The TGI [37] was > 100 µM, the TGI [38] was > 100 µM and the TGI [39] was > 100 µM. The TGI [40] was > 100 µM, the TGI [41] was > 100 µM and the TGI [42] was > 100 µM. The TGI [43] was > 100 µM, the TGI [44] was > 100 µM and the TGI [45] was > 100 µM. For the same compound, the TGI [46] was > 100 µM, the TGI [47] was > 100 µM and the TGI [48] was > 100 µM. The TGI [49] was > 100 µM, the TGI [50] was > 100 µM and the TGI [51] was > 100 µM. The TGI [52] was > 100 µM, the TGI [53] was > 100 µM and the TGI [54] was > 100 µM.

With `C=C(C)[C@@H]1CC[C@]2(C(=O)O)CC[C@]3(C)[C@H](CC[C@@H]4[C@@]5(C)CCC(N)C(C)(C)[C@@H]5CC[C@]43C)[C@@H]12` (stereo partly drawn) the GI50 [1] was 0.682 µM, the TGI [1] was 3.36 µM and the GI50 [2] was 1.95 µM. The TGI [2] was 3.6 µM, the GI50 [9] was 1.78 µM and the TGI [9] was 3.35 µM. For the same compound, the GI50 [10] was 2.79 µM, the TGI [10] was > 100 µM and the GI50 [12] was 1.59 µM. The TGI [12] was 3.02 µM, the GI50 [55] was 2.48 µM and the TGI [55] was 5.38 µM. The GI50 [14] was 1.59 µM, the TGI [14] was 3.07 µM and the GI50 [16] was 2.11 µM. For the same compound, the TGI [16] was 5.53 µM, the GI50 [18] was 1.92 µM and the TGI [18] was 3.55 µM. The GI50 [23] was 2.2 µM, the TGI [23] was 5.32 µM and the GI50 [25] was 1.75 µM. The TGI [25] was 3.32 µM, the GI50 [26] was 1.77 µM and the TGI [26] was 3.31 µM. For the same compound, the GI50 [28] was > 100 µM, the TGI [28] was > 100 µM and the GI50 [29] was 2.49 µM. The TGI [29] was 7 µM, the GI50 [56] was 1.95 µM and the TGI [56] was 3.69 µM. The GI50 [57] was 2.04 µM, the TGI [57] was 5.21 µM and the GI50 [35] was 2.41 µM. It also gave a TGI [35] of 6.22 µM, a GI50 [39] of 1.56 µM and a TGI [39] of 3.22 µM. For the same compound, the GI50 [42] was 1.88 µM, the TGI [42] was 3.69 µM and the GI50 [45] was 1.9 µM. For the same compound, the TGI [45] was 3.66 µM, the GI50 [49] was 3.07 µM and the TGI [49] was > 100 µM. For the same compound, the GI50 [51] was 3.12 µM, the TGI [51] was > 100 µM and the GI50 [53] was 1.39 µM. For the same compound, the TGI [53] was 2.72 µM.

`O=C(CC1(O)C(=O)Nc2ccc(Cl)cc21)c1ccc(C(=O)NCC2CCC3(CC2)OOC2(CCCCC2)OO3)cc1` (stereo not drawn) showed a GI50 [1] of 1.89 µM, a TGI [1] of 4.48 µM and a GI50 [2] of 1.64 µM. It also gave a TGI [2] of 3.39 µM, a GI50 [3] of 1.77 µM and a TGI [3] of 5.22 µM. It also gave a GI50 [4] of 2.68 µM, a TGI [4] of 11.6 µM and a GI50 [5] of 1.88 µM. For the same compound, the TGI [5] was 5.83 µM, the GI50 [6] was 1.72 µM and the TGI [6] was 21.3 µM. The GI50 [7] was 3.01 µM, the TGI [7] was 16.1 µM and the GI50 [8] was 3.06 µM. For the same compound, the TGI [8] was 17.2 µM, the GI50 [9] was 3.45 µM and the TGI [9] was 18.4 µM. The GI50 [10] was 2.54 µM, the TGI [10] was 18.3 µM and the GI50 [11] was 4.19 µM. It also gave a TGI [11] of 23.6 µM, a GI50 [12] of 1.63 µM and a TGI [12] of 3.16 µM. For the same compound, the GI50 [55] was 3.44 µM, the TGI [55] was > 28.2 µM and the GI50 [13] was 4.27 µM. The TGI [13] was 21.4 µM, the GI50 [14] was 0.535 µM and the TGI [14] was 1.86 µM. For the same compound, the GI50 [15] was 11.8 µM, the TGI [15] was 45.5 µM and the GI50 [16] was 1.22 µM. For the same compound, the TGI [16] was 3.99 µM, the GI50 [17] was 13.1 µM and the TGI [17] was 41.2 µM. For the same compound, the GI50 [18] was 5.05 µM, the TGI [18] was 27.6 µM and the GI50 [19] was 2.15 µM. It also gave a TGI [19] of 9.31 µM, a GI50 [20] of 3.33 µM and a TGI [20] of 17.9 µM. The GI50 [21] was 2.71 µM, the TGI [21] was 12.3 µM and the GI50 [24] was 0.292 µM. It also gave a TGI [24] of 1.37 µM, a GI50 [26] of 2.8 µM and a TGI [26] of 9.16 µM. It also gave a GI50 [58] of 1.75 µM, a TGI [58] of 3.4 µM and a GI50 [27] of 1.62 µM. It also gave a TGI [27] of 3.27 µM, a GI50 [28] of 2.6 µM and a TGI [28] of 8.01 µM. For the same compound, the GI50 [29] was 0.445 µM, the TGI [29] was 2 µM and the GI50 [30] was 4.21 µM. The TGI [30] was 30.9 µM, the GI50 [56] was 2.16 µM and the TGI [56] was 4.78 µM. For the same compound, the GI50 [31] was 3.09 µM, the TGI [31] was 12.3 µM and the GI50 [32] was 1.59 µM. For the same compound, the TGI [32] was 4.3 µM, the GI50 [57] was 1.73 µM and the TGI [57] was 4.72 µM. The GI50 [33] was 2.37 µM, the TGI [33] was 9.88 µM and the GI50 [34] was 1.78 µM. For the same compound, the TGI [34] was 3.28 µM, the GI50 [35] was 0.482 µM and the TGI [35] was 2.89 µM. For the same compound, the GI50 [38] was 6.48 µM, the TGI [38] was 24.2 µM and the GI50 [40] was 0.301 µM. The TGI [40] was 8.85 µM, the GI50 [42] was 2.68 µM and the TGI [42] was 7.72 µM. The GI50 [43] was 10.2 µM, the TGI [43] was 28 µM and the GI50 [44] was 1.57 µM. It also gave a TGI [44] of 5.37 µM, a GI50 [46] of 0.509 µM and a TGI [46] of 2.08 µM. For the same compound, the GI50 [47] was 2.94 µM, the TGI [47] was 12.9 µM and the GI50 [48] was 2.13 µM. For the same compound, the TGI [48] was 4.61 µM, the GI50 [49] was 2 µM and the TGI [49] was 6.49 µM. The GI50 [50] was 4.41 µM, the TGI [50] was 24.6 µM and the GI50 [52] was 2.05 µM. The TGI [52] was 5.09 µM, the GI50 [53] was 1.34 µM and the TGI [53] was 3.25 µM. The GI50 [54] was 3.19 µM and the TGI [54] was 11.2 µM.
